Measured values from patent US6596271B2, “Insect control method with genetically engineered biopesticides” (priority 1996, dated 2003).
Marks after values point to notes of the source that are not given here.

Columns and labels:
[1] = system: neonate larvae of H. virescens; test: Time-response of neonate larvae to NPVs with low concentrations of classical insecticides (droplet feeding, treated vials); format: in vivo, Heliothis virescens; conditions: 2000 PIBs and/or LC10-LC20 (24 h) insecticide
Description: For example, two of the compounds studied were pyrethroids, […]. In our study we found a subadditive response when low rates of allethrin or cypermethrin were combined with wild-type AcNPV.

[2] = system: neonate larvae of H. virescens; format: in vivo, Heliothis virescens; conditions: at the μg insecticide/vial of Table 4
Description: As indicated previously, these studies have emphasized the effects of combinations of viral and chemical insecticides on LT50, but the same approaches could be applied to dose as well as time. […] In practice a variety of factors would influence the rates used, including the cost and availability of the biological and chemical pesticide, environmental concerns, level of resistant populations in the field, and other pest management considerations.
Two of the compounds studied were pyrethroids, allethrin (Type I pyrethroid) or cypermethrin (Type II pyrethroid). In our study we found a subadditive response when low rates of allethrin or cypermethrin were combined with wild-type AcNPV.

| SMILES | Actual Kill Time (LT50, h) [1] | LT10 (h; 95% CL) [1] | LT50 (h; 95% CL) [1] | LT90 (h; 95% CL) [1] | % Mortality at 24 hours [2] |
| --- | --- | --- | --- | --- | --- |
| C=CCC1=C(C)C(OC(=O)C2C(C=C(C)C)C2(C)C)CC1=O (centres unmarked) [Allethrin] | 132 h | 17.3 (11.5-22.5) h | 132 (106-185) h | 1000 (552-2680) h | 14.0% |
| CC1(C)C(C=C(Cl)Cl)C1C(=O)OC(C#N)c1cccc(Oc2ccccc2)c1 (centres unmarked) [Cypermethrin] | 124 h | 17.1 (7.99-24.8) h | 124 (97.5-195) h | 902 (436-4190) h | 11.8% |
| Clc1ccc(C(c2ccc(Cl)cc2)C(Cl)(Cl)Cl)cc1 [DDT] | 96.7 h | 12.6 (3.90-23.8) h | 96.7 (73.5-165) h | 740 (318-10320) h | 18.8% |
| O=S1OCC2C(CO1)C1(Cl)C(Cl)=C(Cl)C2(Cl)C1(Cl)Cl (centres unmarked) [Endosulfan] | 73.3 h | 10.4 (3.75-17.3) h | 73.3 (61.0-90.3) h | 514 (296-1580) h | 17.5% |
| CNC(=O)ON=C(C)SC [Methomyl] | 358 h | 4.84 (0.12-13.1) h | 358 (182-4070) h | 26563 (2870-1.25 × 10^8) h | 20.8% |
| CCCSP(=O)(OCC)Oc1ccc(Br)cc1Cl (centres unmarked) [Profenofos] | 401 h | 8.10 (2.61-17.5) h | 401 (260-676) h | – | 16.3% |
